Laboratory results taken from ChEMBL document CHEMBL5543059, “Discovery of anti-inflammatory natural flavonoids: Diverse scaffolds and promising leads for drug discovery” (Eur J Med Chem, 2023).
≈ marks a conversion by molar mass, not a printed value. Values belong to the compound of their own block, whether it stands above or below them.

Key:
BMDM = test: Antiinflammatory activity in LPS-stimulated mouse BMDM cells assessed as inhibition of NF-kappaB signalling pathway incubated for 3 hrs by Western blot analysis; assay type: functional, cell-based
RAW264.7 [1] = test: Anti-inflammatory activity in mouse RAW264.7 cells assessed as inhibition of LPS-induced iNOS mRNA expression; assay type: functional, cell-based
Peritoneal macrophage [2] = test: Antiinflammatory activity in mouse peritoneal macrophages assessed as fold reduction in LPS-induced TNFalpha level at 20 uM incubated for 4 hrs by ELISA method; assay type: functional
Peritoneal macrophage [3] = test: Anti-inflammatory activity against LPS-stimulated mouse peritoneal macrophage assessed as reduction in nitric oxide production; assay type: functional, cell-based
BV-2 [4] = test: Antineuroinflammatory activity in LPS-induced mouse BV-2 cells assessed as inhibition of NO production pre-incubated for 2 hr followed by LPS-stimulation measured for 24 hrs by Griess reagent based analysis; assay type: functional, cell-based
Mus musculus [5] = test: Anti-inflammatory activity in mouse model of xylene-induced auricle edema assessed as inhibition of ear swelling at 50 mg/kg, IG pre-treated for 1 hr followed by xylene addition and measured after 1 hr relative to control; assay type: functional; parameters: scale not given: the % may be the effect or the level left
Mus musculus [6] = test: Antiinflammatory activity against TPA-induced mouse ear edema model assessed as reduction in NO production measured after 4 hrs; assay type: functional, organism-based
HEK293 = test: Anti-inflammatory activity against TNFalpha-induced HEK293 cells assessed as inhibition of NF-kappaB activity pre-indubated for 1 hr followed by TNFalpha treatment measured for 5 hrs by luciferase based assay; assay type: functional, cell-based; settings: Homo sapiens
J774.A1 [7] = test: Anti-inflammatory activity in mouse J774.A1 cells assessed as suppression of LPS-induced IL-6 production by ELISA analysis; assay type: functional, cell-based
RAW264.7 [8] = test: Anti-inflammatory activity in LPS-stimulated mouse RAW264.7 cells assessed as inhibition of NO production incubated for 24 hrs by Griess reagent based assay; assay type: functional, cell-based; settings: RAW264.7, 24 h
[9] = Antioxidant activity assessed as ABTS radical scavenging activity incubated for 40 mins; assay type: functional
[10] = Antioxidant activity assessed as DPPH radical scavenging activity measured for 30 mins; assay type: functional
[11] = Inhibition of TNF-alpha induced NF-kappaB activation in HEK293-A cells incubated for 15 mins by Western blot analysis; assay type: cell-based; settings: Homo sapiens, HEK293, 0.25 h
RAW264.7 [12] = test: Antiinflammatory activity against mouse RAW264.7 cells assessed as inhibition of LPS-stimulated TNF-alpha level by ELISA method; assay type: functional, cell-based
J774.A1 [13] = test: Antiinflammatory activity against mouse J774.A1 cells assessed as inhibition of LPS-stimulated TNF-alpha level by ELISA method; assay type: functional, cell-based
Neutrophil [14] = test: Inhibition of fMLF/CB-induced human Neutrophil activation assessed as reduction in superoxide anion at 10 uM relative to control; assay type: functional; parameters: scale not given: the % may be the effect or the level left
Neutrophil [15] = test: Inhibition of fMLF/CB-induced human Neutrophil activation assessed as reduction in superoxide anion; assay type: functional, cell-based
Neutrophil [16] = test: Inhibition of fMLF/CB-induced human Neutrophil activation assessed as reduction in elastase release; assay type: functional, cell-based
RAW264.7 [17] = test: Anti-inflammatory activity in mouse RAW264.7 cells assessed as inhibition of LPS-induced NO production at 20 uM by Griess reagent based analysis relative to control; assay type: functional; parameters: scale not given: the % may be the effect or the level left
[18] = target: T1, Polyunsaturated fatty acid 5-lipoxygenase (Homo sapiens) (UniProt P09917); test: Inhibition of 5-Lipoxygenase (unknown origin) at 30 uM relative to control
T1 sequence (whole entry): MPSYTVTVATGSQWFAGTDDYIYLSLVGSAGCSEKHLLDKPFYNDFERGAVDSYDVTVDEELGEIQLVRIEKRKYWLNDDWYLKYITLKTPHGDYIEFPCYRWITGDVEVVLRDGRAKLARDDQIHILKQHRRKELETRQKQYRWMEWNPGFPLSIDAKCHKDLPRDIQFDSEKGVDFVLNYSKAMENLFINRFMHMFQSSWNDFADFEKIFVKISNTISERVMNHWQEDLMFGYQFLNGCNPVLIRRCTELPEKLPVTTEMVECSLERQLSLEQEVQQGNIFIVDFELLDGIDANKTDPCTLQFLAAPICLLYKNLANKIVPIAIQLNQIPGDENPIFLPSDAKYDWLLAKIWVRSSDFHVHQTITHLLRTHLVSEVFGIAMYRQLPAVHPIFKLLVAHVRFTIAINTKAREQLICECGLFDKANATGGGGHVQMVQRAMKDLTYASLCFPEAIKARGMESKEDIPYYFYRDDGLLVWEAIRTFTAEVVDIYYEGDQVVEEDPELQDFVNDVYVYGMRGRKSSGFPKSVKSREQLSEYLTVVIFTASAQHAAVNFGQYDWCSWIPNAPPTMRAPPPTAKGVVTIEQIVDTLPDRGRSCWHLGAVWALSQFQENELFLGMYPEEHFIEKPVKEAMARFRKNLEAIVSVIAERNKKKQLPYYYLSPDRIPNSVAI

BV-2 [19] = test: Anti-inflammatory activity in mouse BV-2 cells assessed as reduction in LPS-induced NO production; assay type: functional, cell-based
BV-2 [20] = test: Anti-inflammatory activity in mouse BV-2 cells assessed as reduction in LPS-induced NO production pretreated for 1 hr followed by LPS-stimulation and measured after 18 hrs by 2,3-diaminonaphthalene reagent based fluorescence analysis; assay type: functional, cell-based
THP-1 = test: Anti-inflammatory activity in human THP-1 cells assessed as inhibition of LPS-stimulated NO production by ELISA analysis; assay type: functional, cell-based
RAW264.7 [21] = test: Anti-inflammatory activity in mouse RAW264.7 cells assessed as reduction in LPS-induced NO production by ELISA analysis; assay type: functional, cell-based
RAW264.7 [22] = test: Antiinflammatory activity in mouse RAW264.7 cells assessed as suppression of LPS-induced iNOS expression preincubated with compound for 1 hrs followed by LPS-stimulation and measured after 24 hrs by Western blot analysis; assay type: functional, cell-based
Neutrophil [23] = test: Inhibition of fMLF/CB-induced human Neutrophil activation assessed as reduction in superoxide anion generation pre-incubated for 2 mins prior to CB induction for 3 mins followed by fMLF addition by spectrophotometric analysis; assay type: functional, cell-based
Neutrophil [24] = test: Inhibition of fMLF/CB-induced human Neutrophil activation assessed as reduction in elastase release using MeO-Suc-Ala-Ala-Pro-Val-pnitroanilide as substrate pre-incubated for 2 mins followed by fMLF/CB-stimulation and measured for 5 mins; assay type: functional, cell-based
BV-2 [25] = test: Anti-inflammatory activity in mouse BV-2 cells assessed as inhibition of LPS-induced NO production preincubated with compound for 1 hrs followed by LPS stimulation and measured after 24 hrs by Griess reagent based assay; assay type: functional, cell-based

SMILES: CC(C)(O)[C@@H]1Cc2cc(/C=C/C(=O)c3ccc4c(c3O)C[C@H](C(C)(C)O)O4)ccc2O1
IC50 (BV-2 [4]): 12.4 µM

SMILES: COc1ccc(-c2cc(=O)c3c(OC)c(OC)c(OC)cc3o2)cc1OC [SINENSETIN]
Activity (Mus musculus [5]): 58%

SMILES: C=C(C)[C@H](O)CC/C(C)=C/Cc1c(O)cc2oc(-c3ccc(O)cc3)cc(=O)c2c1O
IC50 (Mus musculus [6]): 3.5 µg/mL (≈ 8.28 µM)

SMILES: CC(C)=CCC/C(C)=C/Cc1c(O)cc2oc(-c3ccc(O)cc3)cc(=O)c2c1O
IC50 (Mus musculus [6]): 4.1 µg/mL (≈ 10.1 µM)

SMILES: COc1c(O)cc(O)c2c(=O)cc(-c3ccccc3)oc12 [WOGONIN]
IC50 (HEK293): 28.1 µM

SMILES: COc1c(O)ccc2c(=O)cc(-c3ccc(O)c(O)c3)oc12
IC50 (RAW264.7 [8]): 27.7 µM
IC50 [9]: 7.9 µM
IC50 [10]: 5 µM

SMILES: COc1cc(O)c2c(c1CC=C(C)C)OC(c1ccccc1)CC2=O (stereo not given)
IC50 (RAW264.7 [12]): 41.2 µM
IC50 (J774.A1 [13]): 35.5 µM

SMILES: CC(C)(O)CCc1c(O)ccc(C(=O)/C=C/c2ccc3c(c2)C[C@@H](C(C)(C)O)O3)c1O
IC50 (BV-2 [4]): 3.25 µM

SMILES: C=C1C(=O)O[C@@H]2C3O[C@]3(C)CC/C=C(\C)CC[C@@H]12 (stereo not given in full)
IC50 [11]: 1.5 µM
IC50 (HEK293): 1.5 µM

SMILES: CC1=C(O)C(=O)C=C2C1=CC=C1[C@@]2(C)CC[C@@]2(C)[C@@H]3C[C@](C)(C(=O)O)CC[C@]3(C)CC[C@]12C [CELASTROL]
IC50 (RAW264.7 [22]): 1 µM

SMILES: COc1cc(-c2cc(=O)c3c(O)c(OC)c(O)cc3o2)c(O)cc1O
Activity (RAW264.7 [17]): 54%
inhibition [18]: 46.9%

SMILES: COc1cc(O)c2c(=O)c(-c3ccc(O)c(OC)c3)coc2c1
Activity (Neutrophil [14]): 49%

SMILES: COc1ccc(-c2cc(=O)c3c(OC)c(OC)c(OC)cc3o2)cc1
Activity (Mus musculus [5]): 42.8%

Now from value to compound, other results behind:

IC50 (BMDM): 12 µg/mL (≈ 29.7 µM)
IC50 (RAW264.7 [1]): 7.2 µg/mL (≈ 17.8 µM)
SMILES: CC(C)=CCc1c2c(c3occ(-c4ccc(O)cc4)c(=O)c3c1O)C=CC(C)(C)O2 [OSAJIN]
fold change (FC) (Peritoneal macrophage [2]): 1.8

IC50 (Peritoneal macrophage [3]): 23.6 µM
SMILES: COc1ccc(-c2coc3cc(O)c(OC)c(O)c3c2=O)cc1 [IRISOLIDONE]

IC50 (BMDM): 13 µg/mL (≈ 30.9 µM)
IC50 (RAW264.7 [1]): 6.4 µg/mL (≈ 15.2 µM)
SMILES: CC(C)=CCc1c2c(c3occ(-c4ccc(O)c(O)c4)c(=O)c3c1O)C=CC(C)(C)O2 [POMIFERIN]
fold change (FC) (Peritoneal macrophage [2]): 1.5

IC50 (J774.A1 [7]): 8.7 µM
SMILES: CC(C)(O)c1ccccc1CC[C@@H](SCC1(CC(=O)O)CC1)c1cccc(/C=C/c2ccc3ccc(Cl)cc3n2)c1 [MONTELUKAST]

IC50 [11]: 3.9 µM
SMILES: COc1c(O)cc2oc(-c3ccccc3)cc(=O)c2c1O [OROXYLIN A]

IC50 [9]: 3.3 µM
IC50 [10]: 2.1 µM
SMILES: O=C1O[C@H]([C@@H](O)CO)C(O)=C1O [ASCORBIC ACID]

IC50 (Neutrophil [15]): 1.1 µM
IC50 (Neutrophil [16]): 3.2 µM
SMILES: O=c1cc(N2CCOCC2)oc2c(-c3ccccc3)cccc12 [LY-294002]
Activity (Neutrophil [14]): 96.5%

inhibition [18]: 48.5%
SMILES: COc1cc2oc(-c3ccc(O)c(O)c3)cc(=O)c2c(O)c1OC [CIRSILIOL]
Activity (RAW264.7 [17]): 54%

IC50 (BV-2 [19]): 15.2 µM
IC50 (Peritoneal macrophage [3]): 148 µM
IC50 (BV-2 [20]): 55.4 µM
IC50 (RAW264.7 [8]): 8.5 µM
IC50 (THP-1): 19.4 µM
IC50 (RAW264.7 [21]): 17.6 µM
SMILES: COc1ccc2c(c1)c(CC(=O)O)c(C)n2C(=O)c1ccc(Cl)cc1 [INDOMETHACIN]

IC50 (Neutrophil [23]): ≤ 12.5 µM
IC50 (Neutrophil [24]): ≤ 15.2 µM
SMILES: COc1cc(O)c2c(=O)cc(-c3ccc(O)c(OC)c3)oc2c1 [VELUTIN]

IC50 (J774.A1 [7]): 17.8 µM
IC50 (BV-2 [25]): 25.1 µM
SMILES: COc1cc(O)c2c(=O)c(OC)c(-c3ccc(OC)c(O)c3)oc2c1 [AYANIN]

IC50 (RAW264.7 [22]): 3.1 µM
SMILES: COc1cc(-c2cc(=O)c3c(O)cc(O)cc3o2)ccc1O [CHRYSOERIOL]
